Measured values from ChEMBL document CHEMBL1671662, “In vitro activities of telavancin and six comparator agents against anaerobic bacterial isolates” (2009).

How the values were obtained:
Clostridioides difficile = assay: Antibacterial activity against Clostridium difficile by CLSI M11-A6 agar dilution method; format: functional
Blautia producta = assay: Antibacterial activity against Ruminococcus productus by CLSI M11-A6 agar dilution method; format: functional
Eggerthella lenta = assay: Antibacterial activity against Eggerthella lenta by CLSI M11-A6 agar dilution method; format: functional
Ruminococcus obeum = assay: Antibacterial activity against Ruminococcus obeum by CLSI M11-A6 agar dilution method; format: functional; details: Blautia obeum
Actinomyces naeslundii = assay: Antibacterial activity against Actinomyces naeslundii by CLSI M11-A6 agar dilution method; format: functional
Clostridium bolteae = assay: Antibacterial activity against Clostridium bolteae by CLSI M11-A6 agar dilution method; format: functional; details: Enterocloster bolteae
Finegoldia magna = assay: Antibacterial activity against Finegoldia magna by CLSI M11-A6 agar dilution method; format: functional
Clostridium sporogenes = assay: Antibacterial activity against Clostridium sporogenes by CLSI M11-A6 agar dilution method; format: functional
Clostridium sp. = assay: Antibacterial activity against Clostridium sp. by CLSI M11-A6 agar dilution method; format: functional
Streptococcus anginosus = assay: Antibacterial activity against Streptococcus anginosus by CLSI M11-A6 agar dilution method; format: functional
[1] = tested on: Parabacteroides distasonis; assay: Antibacterial activity against Parabacteroides distasonis by CLSI M11-A6 agar dilution method; format: functional
Bacteroides ovatus = assay: Antibacterial activity against Bacteroides ovatus by CLSI M11-A6 agar dilution method; format: functional
Prevotella bivia = assay: Antibacterial activity against Prevotella bivia by CLSI M11-A6 agar dilution method; format: functional
Hoylesella oralis = assay: Antibacterial activity against Prevotella oralis by CLSI M11-A6 agar dilution method; format: functional
Prevotella nigrescens = assay: Antibacterial activity against Prevotella nigrescens by CLSI M11-A6 agar dilution method; format: functional
Blautia luti = assay: Antibacterial activity against Ruminococcus luti by CLSI M11-A6 agar dilution method; format: functional
Prevotella intermedia = assay: Antibacterial activity against Prevotella P intermedia by CLSI M11-A6 agar dilution method; format: functional
Fusobacterium varium = assay: Antibacterial activity against Fusobacterium varium by CLSI M11-A6 agar dilution method; format: functional
Thomasclavelia ramosa = assay: Antibacterial activity against Clostridium ramosum by CLSI M11-A6 agar dilution method; format: functional
Fusobacterium mortiferum = assay: Antibacterial activity against Fusobacterium mortiferum by CLSI M11-A6 agar dilution method; format: functional
[2] = tested on: Bifidobacterium adolescentis; assay: Antibacterial activity against Bifidobacterium adolescentis by CLSI M11-A6 agar dilution method; format: functional
Prevotella oris = assay: Antibacterial activity against Prevotella oris by CLSI M11-A6 agar dilution method; format: functional; details: Segatella oris
[3] = tested on: Sutterella wadsworthensis; assay: Antibacterial activity against Sutterella wadsworthensis by CLSI M11-A6 agar dilution method; format: functional
Anaerococcus prevotii = assay: Antibacterial activity against Anaerococcus prevotii by CLSI M11-A6 agar dilution method; format: functional
Holdemania filiformis = assay: Antibacterial activity against Holdemania filiformis by CLSI M11-A6 agar dilution method; format: functional
Clostridium disporicum = assay: Antibacterial activity against Clostridium disporicum by CLSI M11-A6 agar dilution method; format: functional
[4] = tested on: Clostridium paraputrificum; assay: Antibacterial activity against Clostridium paraputrificum by CLSI M11-A6 agar dilution method; format: functional
[5] = tested on: Bifidobacterium pseudolongum; assay: Antibacterial activity against Bifidobacterium pseudolongum by CLSI M11-A6 agar dilution method; format: functional
Ruminococcus albus = assay: Antibacterial activity against Ruminococcus albus by CLSI M11-A6 agar dilution method; format: functional; details: Hominimerdicola alba
Hoylesella loescheii = assay: Antibacterial activity against Prevotella loescheii by CLSI M11-A6 agar dilution method; format: functional
Clostridium hathewayi = assay: Antibacterial activity against Clostridium hathewayi by CLSI M11-A6 agar dilution method; format: functional; details: Hungatella hathewayi
Collinsella aerofaciens = assay: Antibacterial activity against Colinsella aerofaciens by CLSI M11-A6 agar dilution method; format: functional
Prevotella denticola = assay: Antibacterial activity against Prevotella P denticola by CLSI M11-A6 agar dilution method; format: functional
Clostridium = assay: Antibacterial activity against Clostridium hypermegas by CLSI M11-A6 agar dilution method; format: functional
Clostridium subterminale = assay: Antibacterial activity against Clostridium subterminale by CLSI M11-A6 agar dilution method; format: functional
[6] = tested on: Clostridium sporosphaeroides; assay: Antibacterial activity against Clostridium sporosphaeroides by CLSI M11-A6 agar dilution method; format: functional; details: Faecalispora sporosphaeroides
Coriobacterium = assay: Antibacterial activity against […] by CLSI M11-A6 agar dilution method; format: functional
[7] = Antibacterial activity against Bifidobacterium infantis by CLSI M11-A6 agar dilution method; format: functional, Bifidobacterium longum subsp. infantis; details: Bifidobacterium longum
[8] = tested on: Coprobacillus cateniformis; assay: Antibacterial activity against Coprobacillus cateniformis by CLSI M11-A6 agar dilution method; format: functional

CC(=O)NC[C@H]1CN(c2ccc(N3CCOCC3)c(F)c2)C(=O)O1 [LINEZOLID]
1 mg/L: MIC50 (Eggerthella lenta) | MIC (Ruminococcus obeum) | MIC50 (Ruminococcus obeum) | MIC50 (Actinomyces naeslundii) | MIC50 (Finegoldia magna) | MIC50 (Fusobacterium varium) | MIC90 (Fusobacterium varium) | MIC50 (Fusobacterium mortiferum) | MIC90 (Fusobacterium mortiferum) | MIC50 [2] | MIC50 (Anaerococcus prevotii) | MIC50 (Holdemania filiformis) | MIC50 [5] | MIC50 (Collinsella aerofaciens) | MIC50 (Coriobacterium) | MIC50 [8]
8 mg/L: MIC90 (Eggerthella lenta) | MIC90 (Actinomyces naeslundii) | MIC50 (Thomasclavelia ramosa) | MIC90 (Thomasclavelia ramosa) | MIC90 [2] | MIC90 (Holdemania filiformis) | MIC90 [5] | MIC90 (Collinsella aerofaciens) | MIC90 (Coriobacterium) | MIC90 [7] | MIC90 [8]
4 mg/L: MIC90 (Blautia producta) | MIC50 (Clostridium bolteae) | MIC90 (Clostridium bolteae) | MIC90 (Clostridium sporogenes) | MIC90 (Clostridium sp.) | MIC90 (Streptococcus anginosus) | MIC50 [1] | MIC90 [1] | MIC50 (Bacteroides ovatus) | MIC90 (Bacteroides ovatus) | MIC90 (Blautia luti) | MIC90 (Clostridium disporicum) | MIC90 [4] | MIC90 (Ruminococcus albus) | MIC90 (Clostridium hathewayi) | MIC90 (Clostridium) | MIC50 (Clostridium subterminale) | MIC90 (Clostridium subterminale) | MIC90 [6]
16 mg/L: MIC90 (Clostridioides difficile)
2 mg/L: MIC50 (Clostridioides difficile) | MIC50 (Blautia producta) | MIC90 (Ruminococcus obeum) | MIC90 (Finegoldia magna) | MIC50 (Clostridium sporogenes) | MIC50 (Clostridium sp.) | MIC50 (Streptococcus anginosus) | MIC50 (Prevotella bivia) | MIC90 (Prevotella bivia) | MIC50 (Hoylesella oralis) | MIC90 (Hoylesella oralis) | MIC50 (Prevotella nigrescens) | MIC90 (Prevotella nigrescens) | MIC50 (Blautia luti) | MIC50 (Prevotella intermedia) | MIC90 (Prevotella intermedia) | MIC50 (Prevotella oris) | MIC90 (Prevotella oris) | MIC90 (Anaerococcus prevotii) | MIC50 (Clostridium disporicum) | MIC50 [4] | MIC50 (Ruminococcus albus) | MIC50 (Hoylesella loescheii) | MIC90 (Hoylesella loescheii) | MIC50 (Clostridium hathewayi) | MIC50 (Prevotella denticola) | MIC90 (Prevotella denticola) | MIC50 (Clostridium) | MIC50 [6]
> 128 mg/L: MIC [3] | MIC50 [3] | MIC90 [3]
